The supplement of paper PMC8671470

The molecules below were run on HL-60 (assay: cell viability (% survival relative to DMSO control); higher = less cytotoxic). Settings: drug1 concentration 1000 nM; drug2 concentration 10 nM; 72 h.
Procedure: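 8x8 drug-combination matrices (0-5000 nM; rosiglitazone and lestaurtinib 0-1000 nM) were run in HL-60 cells for 72 h with a CellTiter-Glo read-out. Survival is normalised to DMSO and 10 µM bortezomib and clipped at 100%. Bliss synergy was analysed in SynergyFinder.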

In the case of `CC(C)c1onc(-c2c(Cl)cccc2Cl)c1COc1ccc(/C=C/c2cccc(C(=O)O)c2)c(Cl)c1` [GW4064] + Cn1cc(-c2ccncc2)c(-c2ccc(OCc3ccc4ccccc4n3)cc2)n1 [PF-02545920], the cell viability is reported as > 100%.

Same assay, conditions: drug1 concentration 1000 nM; drug2 concentration 50 nM; 72 h

First: O=C(C1CC1)N1CC[C@@H](C=C2NNC(=O)N2c2ccc(-c3ccc4occc4c3)cc2)C1 + CS(=O)(=O)N1CCN(Cc2cc3nc(-c4cccc5[nH]ncc45)nc(N4CCOCC4)c3s2)CC1 [Pictilisib]
Second: CC(C)c1onc(-c2c(Cl)cccc2Cl)c1COc1ccc(/C=C/c2cccc(C(=O)O)c2)c(Cl)c1 [GW4064] + Cn1cc(-c2ccncc2)c(-c2ccc(OCc3ccc4ccccc4n3)cc2)n1 [PF-02545920]
The cell viability of the first is lower: 53.1% for the first, 68.7% for the second.

In the case of `O=C(C1CC1)N1CC[C@@H](C=C2NNC(=O)N2c2ccc(-c3ccc4occc4c3)cc2)C1` + C[C@H](NC(=O)c1sccc1OCc1ccc(Cl)cc1)c1ccccc1 [as1949490], the cell viability is reported as 51.9%.
`O=C(C1CC1)N1CC[C@@H](C=C2NNC(=O)N2c2ccc(-c3ccc4occc4c3)cc2)C1` + O=C(c1c2ccccc2cc2ccccc12)N1CCC(N2CCC[C@@H](C(=O)N3CCOCC3)C2)CC1 [CP-640186] showed a cell viability of 68.2%.

Same assay, conditions: drug1 concentration 1000 nM; drug2 concentration 100 nM; 72 h

Compared with `O=C(C1CC1)N1CC[C@@H](C=C2NNC(=O)N2c2ccc(-c3ccc4occc4c3)cc2)C1` + CS(=O)(=O)N1CCN(Cc2cc3nc(-c4cccc5[nH]ncc45)nc(N4CCOCC4)c3s2)CC1 [Pictilisib], `CC(C)c1onc(-c2c(Cl)cccc2Cl)c1COc1ccc(/C=C/c2cccc(C(=O)O)c2)c(Cl)c1` [GW4064] + Cn1cc(-c2ccncc2)c(-c2ccc(OCc3ccc4ccccc4n3)cc2)n1 [PF-02545920] is higher in cell viability: 51.7% for the first, > 100% for the second.

Work on `O=C(C1CC1)N1CC[C@@H](C=C2NNC(=O)N2c2ccc(-c3ccc4occc4c3)cc2)C1` + C[C@H](NC(=O)c1sccc1OCc1ccc(Cl)cc1)c1ccccc1 [as1949490] yielded a cell viability of 48.8%.
Molecule `O=C(C1CC1)N1CC[C@@H](C=C2NNC(=O)N2c2ccc(-c3ccc4occc4c3)cc2)C1` + O=C(c1c2ccccc2cc2ccccc12)N1CCC(N2CCC[C@@H](C(=O)N3CCOCC3)C2)CC1 [CP-640186] has a cell viability of 63.6%.

Same assay, conditions: drug1 concentration 1000 nM; drug2 concentration 500 nM; 72 h

Going from `O=C(C1CC1)N1CC[C@@H](C=C2NNC(=O)N2c2ccc(-c3ccc4occc4c3)cc2)C1` + CS(=O)(=O)N1CCN(Cc2cc3nc(-c4cccc5[nH]ncc45)nc(N4CCOCC4)c3s2)CC1 [Pictilisib] to `CC(C)c1onc(-c2c(Cl)cccc2Cl)c1COc1ccc(/C=C/c2cccc(C(=O)O)c2)c(Cl)c1` [GW4064] + Cn1cc(-c2ccncc2)c(-c2ccc(OCc3ccc4ccccc4n3)cc2)n1 [PF-02545920], the cell viability rises from 47.1% to > 100%.

In the case of `O=C(C1CC1)N1CC[C@@H](C=C2NNC(=O)N2c2ccc(-c3ccc4occc4c3)cc2)C1` + C[C@H](NC(=O)c1sccc1OCc1ccc(Cl)cc1)c1ccccc1 [as1949490], the cell viability is reported as 49.6%.
Molecule `O=C(C1CC1)N1CC[C@@H](C=C2NNC(=O)N2c2ccc(-c3ccc4occc4c3)cc2)C1` + O=C(c1c2ccccc2cc2ccccc12)N1CCC(N2CCC[C@@H](C(=O)N3CCOCC3)C2)CC1 [CP-640186] has a cell viability of 57.8%.

Same assay, conditions: drug1 concentration 1000 nM; drug2 concentration 1000 nM; 72 h

Compared with `O=C(C1CC1)N1CC[C@@H](C=C2NNC(=O)N2c2ccc(-c3ccc4occc4c3)cc2)C1` + CS(=O)(=O)N1CCN(Cc2cc3nc(-c4cccc5[nH]ncc45)nc(N4CCOCC4)c3s2)CC1 [Pictilisib], `CC(C)c1onc(-c2c(Cl)cccc2Cl)c1COc1ccc(/C=C/c2cccc(C(=O)O)c2)c(Cl)c1` [GW4064] + Cn1cc(-c2ccncc2)c(-c2ccc(OCc3ccc4ccccc4n3)cc2)n1 [PF-02545920] is lower in cell viability: 49.9% for the first, 46.6% for the second.

Work on `O=C(C1CC1)N1CC[C@@H](C=C2NNC(=O)N2c2ccc(-c3ccc4occc4c3)cc2)C1` + C[C@H](NC(=O)c1sccc1OCc1ccc(Cl)cc1)c1ccccc1 [as1949490] yielded a cell viability of 44.1%.
`O=C(C1CC1)N1CC[C@@H](C=C2NNC(=O)N2c2ccc(-c3ccc4occc4c3)cc2)C1` + O=C(c1c2ccccc2cc2ccccc12)N1CCC(N2CCC[C@@H](C(=O)N3CCOCC3)C2)CC1 [CP-640186] showed a cell viability of 56.3%.

Same assay, conditions: drug1 concentration 1000 nM; drug2 concentration 5000 nM; 72 h

Going from `O=C(C1CC1)N1CC[C@@H](C=C2NNC(=O)N2c2ccc(-c3ccc4occc4c3)cc2)C1` + CS(=O)(=O)N1CCN(Cc2cc3nc(-c4cccc5[nH]ncc45)nc(N4CCOCC4)c3s2)CC1 [Pictilisib] to `CC(C)c1onc(-c2c(Cl)cccc2Cl)c1COc1ccc(/C=C/c2cccc(C(=O)O)c2)c(Cl)c1` [GW4064] + Cn1cc(-c2ccncc2)c(-c2ccc(OCc3ccc4ccccc4n3)cc2)n1 [PF-02545920], the cell viability rises from 43.5% to 89.8%.

Molecule `O=C(C1CC1)N1CC[C@@H](C=C2NNC(=O)N2c2ccc(-c3ccc4occc4c3)cc2)C1` + C[C@H](NC(=O)c1sccc1OCc1ccc(Cl)cc1)c1ccccc1 [as1949490] has a cell viability of 40.9%.
For `O=C(C1CC1)N1CC[C@@H](C=C2NNC(=O)N2c2ccc(-c3ccc4occc4c3)cc2)C1` + O=C(c1c2ccccc2cc2ccccc12)N1CCC(N2CCC[C@@H](C(=O)N3CCOCC3)C2)CC1 [CP-640186], the cell viability was 53.7%.

Same assay, conditions: drug1 concentration 5000 nM; drug2 concentration 5 nM; 72 h

Compared with `O=C(C1CC1)N1CC[C@@H](C=C2NNC(=O)N2c2ccc(-c3ccc4occc4c3)cc2)C1` + CS(=O)(=O)N1CCN(Cc2cc3nc(-c4cccc5[nH]ncc45)nc(N4CCOCC4)c3s2)CC1 [Pictilisib], `CC(C)c1onc(-c2c(Cl)cccc2Cl)c1COc1ccc(/C=C/c2cccc(C(=O)O)c2)c(Cl)c1` [GW4064] + Cn1cc(-c2ccncc2)c(-c2ccc(OCc3ccc4ccccc4n3)cc2)n1 [PF-02545920] is higher in cell viability: 51.5% for the first, 78.8% for the second.

Work on `O=C(C1CC1)N1CC[C@@H](C=C2NNC(=O)N2c2ccc(-c3ccc4occc4c3)cc2)C1` + C[C@H](NC(=O)c1sccc1OCc1ccc(Cl)cc1)c1ccccc1 [as1949490] yielded a cell viability of 51.6%.
Work on `O=C(C1CC1)N1CC[C@@H](C=C2NNC(=O)N2c2ccc(-c3ccc4occc4c3)cc2)C1` + O=C(c1c2ccccc2cc2ccccc12)N1CCC(N2CCC[C@@H](C(=O)N3CCOCC3)C2)CC1 [CP-640186] yielded a cell viability of 88.2%.

Same assay, conditions: drug1 concentration 5000 nM; drug2 concentration 10 nM; 72 h

First: O=C(C1CC1)N1CC[C@@H](C=C2NNC(=O)N2c2ccc(-c3ccc4occc4c3)cc2)C1 + CS(=O)(=O)N1CCN(Cc2cc3nc(-c4cccc5[nH]ncc45)nc(N4CCOCC4)c3s2)CC1 [Pictilisib]
Second: CC(C)c1onc(-c2c(Cl)cccc2Cl)c1COc1ccc(/C=C/c2cccc(C(=O)O)c2)c(Cl)c1 [GW4064] + Cn1cc(-c2ccncc2)c(-c2ccc(OCc3ccc4ccccc4n3)cc2)n1 [PF-02545920]
The cell viability of the first is lower: 52.9% for the first, 89.8% for the second.

In the case of `O=C(C1CC1)N1CC[C@@H](C=C2NNC(=O)N2c2ccc(-c3ccc4occc4c3)cc2)C1` + C[C@H](NC(=O)c1sccc1OCc1ccc(Cl)cc1)c1ccccc1 [as1949490], the cell viability is reported as 48.5%.
For `O=C(C1CC1)N1CC[C@@H](C=C2NNC(=O)N2c2ccc(-c3ccc4occc4c3)cc2)C1` + O=C(c1c2ccccc2cc2ccccc12)N1CCC(N2CCC[C@@H](C(=O)N3CCOCC3)C2)CC1 [CP-640186], the cell viability was 64.5%.

Same assay, conditions: drug1 concentration 5000 nM; drug2 concentration 50 nM; 72 h

Going from `O=C(C1CC1)N1CC[C@@H](C=C2NNC(=O)N2c2ccc(-c3ccc4occc4c3)cc2)C1` + CS(=O)(=O)N1CCN(Cc2cc3nc(-c4cccc5[nH]ncc45)nc(N4CCOCC4)c3s2)CC1 [Pictilisib] to `CC(C)c1onc(-c2c(Cl)cccc2Cl)c1COc1ccc(/C=C/c2cccc(C(=O)O)c2)c(Cl)c1` [GW4064] + Cn1cc(-c2ccncc2)c(-c2ccc(OCc3ccc4ccccc4n3)cc2)n1 [PF-02545920], the cell viability rises from 51% to > 100%.

Molecule `O=C(C1CC1)N1CC[C@@H](C=C2NNC(=O)N2c2ccc(-c3ccc4occc4c3)cc2)C1` + C[C@H](NC(=O)c1sccc1OCc1ccc(Cl)cc1)c1ccccc1 [as1949490] has a cell viability of 42.1%.
`O=C(C1CC1)N1CC[C@@H](C=C2NNC(=O)N2c2ccc(-c3ccc4occc4c3)cc2)C1` + O=C(c1c2ccccc2cc2ccccc12)N1CCC(N2CCC[C@@H](C(=O)N3CCOCC3)C2)CC1 [CP-640186] showed a cell viability of 74.1%.

Same assay, conditions: drug1 concentration 5000 nM; drug2 concentration 100 nM; 72 h

Work on `O=C(C1CC1)N1CC[C@@H](C=C2NNC(=O)N2c2ccc(-c3ccc4occc4c3)cc2)C1` + CS(=O)(=O)N1CCN(Cc2cc3nc(-c4cccc5[nH]ncc45)nc(N4CCOCC4)c3s2)CC1 [Pictilisib] yielded a cell viability of 52.2%.
Work on `O=C(C1CC1)N1CC[C@@H](C=C2NNC(=O)N2c2ccc(-c3ccc4occc4c3)cc2)C1` + C[C@H](NC(=O)c1sccc1OCc1ccc(Cl)cc1)c1ccccc1 [as1949490] yielded a cell viability of 37.7%.
Molecule `O=C(C1CC1)N1CC[C@@H](C=C2NNC(=O)N2c2ccc(-c3ccc4occc4c3)cc2)C1` + O=C(c1c2ccccc2cc2ccccc12)N1CCC(N2CCC[C@@H](C(=O)N3CCOCC3)C2)CC1 [CP-640186] has a cell viability of 72.3%.
